Assay results: patent publication US12440833B2, “Sample containers adapted for acoustic ejections and sample preservation and methods thereof” (priority 2011, dated 2025)
Like-named read-outs stand apart in the source and are kept apart here.

Assays:
TPCK trypsin [1] = biological target: T1, TPCK trypsin (Bos taurus, UniProt P00760); assay type: biochemical; conditions: for average fluorescence of wells with trypsin exposed to tubes with immobilized ligand: 12.5 ng trypsin per tube, 120 minutes at room temperature
T1 construct: purchased Thermo Scientific Pierce 23266
T1 sequence (P00760 24-246): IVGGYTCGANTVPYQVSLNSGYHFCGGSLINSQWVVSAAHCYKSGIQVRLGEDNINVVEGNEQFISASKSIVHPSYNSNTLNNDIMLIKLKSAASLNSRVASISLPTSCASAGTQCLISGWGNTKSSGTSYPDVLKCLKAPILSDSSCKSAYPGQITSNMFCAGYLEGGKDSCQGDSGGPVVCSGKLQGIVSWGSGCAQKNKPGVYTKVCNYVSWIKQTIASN
Protocol: Protease activity and the inhibition thereof were measured with a Fluorescent Protease Assay Kit (Thermo Scientific Pierce, catalog number 23266). TRIS-buffered saline (TBS, 25 mM Tris, 0.15 M NaCl, pH 7.2) was reconstituted from dry solids in the kit with deionized water. Trypsin stock solution was freshly prepared by dissolving TPCK trypsin from kit with 1 mL deionized water to make a 50 mg/mL solution. […] Aliquots of 10 μL were stored at −60° C. Individual aliquots of the stock solution were diluted in 1.0 mL of TBS (0.5 mg/mL), and 10 μL of this solution was further diluted in 10 mL of TBS (0.5 μg/mL). This solution was serially diluted 1:1 with TBS to create a trypsin solution of 62.5 ng/mL. The trypsin solution was kept in an ice bath until use. 200 μL of the diluted trypsin (12.5 ng) was added to each prepared polypropylene tube. The solution was aspirated and re-dispensed three times in each tube to assure complete mixing and contact of the solution with the derivatized internal walls of the tubes. A new disposable tip was used for each transfer. After incubation at room temperature for 120 minutes, 100 μL of the trypsin solution from each tube was placed into individual wells of a 96-well, black, flat-bottomed plate (Greiner Bio-one, catalog number 655076, Monroe, N.C.). […] The plate was incubated at room temperature for 95 minutes. […] Increased fluorescence is indicative of trypsin-mediated digestion of the added FTC-casein solution via the decrease of FRET-based fluorescence quenching that exists in the intact protein.

TPCK trypsin [2] = biological target: T1, TPCK trypsin; assay type: biochemical; conditions: for average fluorescence of wells with trypsin exposed to tubes with immobilized ligand: 12.5 ng trypsin per tube, 120 minutes at room temperature; remark: listed apart in the source
Protocol: Protease activity and the inhibition thereof were measured with a Fluorescent Protease Assay Kit (Thermo Scientific Pierce, catalog number 23266). TRIS-buffered saline (TBS, 25 mM Tris, 0.15 M NaCl, pH 7.2) was reconstituted from dry solids in the kit with deionized water. Trypsin stock solution was freshly prepared by dissolving TPCK trypsin from kit with 1 mL deionized water to make a 50 mg/mL solution. Aliquots of 10 μL were stored at −60° C. Individual aliquots of the stock solution were diluted in 1.0 mL of TBS (0.5 mg/mL), and 10 μL of this solution was further diluted in 10 mL of TBS (0.5 μg/mL). This solution was serially diluted 1:1 with TBS to create a trypsin solution of 62.5 ng/mL. The trypsin solution was kept in an ice bath until use. 200 μL of the diluted trypsin (12.5 ng) was added to each prepared polypropylene tube. The solution was aspirated and re-dispensed three times in each tube to assure complete mixing and contact of the solution with the derivatized internal walls of the tubes. A new disposable tip was used for each transfer. After incubation at room temperature for 120 minutes, 100 μL of the trypsin solution from each tube was placed into individual wells of a 96-well, black, flat-bottomed plate (Greiner Bio-one, catalog number 655076, Monroe, N.C.). FTC-casein—(casein protein modified by the addition of fluorescein isothiocyanate, a part of the Fluorescent Protease Assay Kit) solution in TBS buffer was freshly prepared and 100 μL of this solution was added to each well and mixed via aspiration and dispense. The plate was incubated at room temperature for 95 minutes. The fluorescence of the samples in the 96-well plate was measured on a SpectraFluor Plus fluorescence spectrometer (Tecan, Mannedorf, Switzerland) 5 minutes after the solution was added and additionally after 10, 20, 40, 60 and 95 minutes. Increased fluorescence is indicative of trypsin-mediated digestion of the added FTC-casein solution via the decrease of FRET-based fluorescence quenching that exists in the intact protein.

[3] = Example A, ligand immobilized on tube wall, background 5382 RFU
[4] = Example B, ligand immobilized on tube wall, background 5382 RFU
[5] = 0.1 mM TLCK in the well (not immobilized), after 20 minutes, background 5382 RFU

NCCCO [AP Ligand, 3-amino-1-propanol]
average fluorescence of wells with trypsin exposed to tubes with immobilized ligand (TPCK trypsin [1]; [3]): 21289 RFU | average fluorescence of wells with trypsin exposed to tubes with immobilized ligand (TPCK trypsin [2]; [4]): 20847 RFU

Cc1ccc(S(=O)(=O)N[C@@H](CCCCN)C(=O)CCl)cc1.Cl [TLCK Ligand, N-alpha-tosyl-L-lysine chloromethyl ketone hydrochloride]
fluorescence of wells that contained FTC-casein, trypsin and inhibitor (TPCK trypsin [1]; [5]): 6841 RFU | average fluorescence of wells with trypsin exposed to tubes with immobilized ligand (TPCK trypsin [1]; [3]): 15521 RFU | inhibition of trypsin activity (TPCK trypsin [1]; Example A, ligand immobilized on tube wall, trypsin exposed 120 minutes at room temperature): 35% | fluorescence of wells that contained FTC-casein, trypsin and inhibitor (TPCK trypsin [2]; [5]): 6841 RFU | average fluorescence of wells with trypsin exposed to tubes with immobilized ligand (TPCK trypsin [2]; [4]): 13386 RFU | inhibition of trypsin activity (TPCK trypsin [2]; Example B, ligand immobilized on tube wall, trypsin exposed 120 minutes at room temperature): 48%
